Counter-ions that a name gives are not always drawn. Like-named read-outs stand apart in the source and are kept apart here.
Tests used:
[1] = Plasma protein binding, Rapid Equilibrium Dialysis; format: in vitro ADME; details: human plasma proteins
Protocol: Plasma binding free fractions (fu) were determined using a proprietary validated Rapid Equilibrium Dialysis (RED) device (Thermofisher). The analyte was spiked to a concentration of 2 μM in pre-prepared male CD rat plasma and 220 μl aliquots (n=4) were loaded into a RED device. The samples were dialysed vs. 350 μl of dulbeccos phosphate buffered saline (dPBS) for 4 h at 37° C. in a CO2 incubator in order to reach equilibrium. After 4 hours, 45 μl buffer and 15 μl plasma aliquots were taken and added to a 200 μl 384-well polypropylene plate. Respective volumes of control buffer were added to the plasma or control plasma was added to the buffer samples to give an identical matrix between samples. The samples were then crashed in 120 μl of acetonitrile and analysed via LC-MS/MS.
For highly bound compounds in the potency assay, which includes 10% foetal calf serum, measured potencies may not reflect real intrinsic potency due to a significant degree of compound binding.

[2] = system: 1b (con1) replicon cells; experiment: HCV 1b replicon inhibitory activity (luciferase, Britelite Plus); format: cell-based, hepatitis C virus; details: Hepatitis C virus, read-out: IC50 value (95% Confidence Intervals) pM Replicon 1B assay
Procedure, shortened: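 1b (con1) luciferase replicon cells in DMEM + 10% FCS were exposed to 1-in-3 DMSO compound dilutions for 48 h at 37° C, 5% CO2. Luminescence was read 1-15 min after Britelite Plus addition; EC50 came from log concentration-response curves.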

[3] = system: 1a-H77 replicon cells; experiment: HCV 1a replicon inhibitory activity (Renilla luciferase); format: cell-based, hepatitis C virus; details: Hepatitis C virus, read-out: IC50 value (95% Confidence Intervals) pM Replicon 1A assay
Procedure, shortened: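 Replicon cells in DMEM + 10% FCS incubated 48 hours at 37° C., 5% CO2 with 1-in-3 serial dilutions of compound prepared in DMSO. Replication read as Renilla luciferase luminescence after lysis. EC50 taken from log concentration-response curves.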

[4] = Compound induced cytotoxicity in HCV replicon cell lines (WST-1 reagent); format: cell-based; details: human, 1b (con1) HCV replicon cells; WST-1, 48 hours; in 1 experiment
Protocol: Test compounds were solubilised to 4 mM in 100% DMSO. Dilutions were made to the desired starting concentration in 100% DMSO and then 1 in 3 dilutions made, again in 100% DMSO. 0.5 μl of each sample was added to 384-well assay plates. White Lumitrac (Greiner) plates were used for the 1a and 1b replicon assays and black, clear bottomed (Greiner) plates were used for the WST-1 cytotoxity assay.
1b (con1) replicon cells were resuspended to a concentration of 1.4×10^5 cells/ml by addition of pre-warmed medium (DMEM+10% FCS). 50 μl of this suspension was added to each well of a 384-well assay plate (Black, clear bottomed, Greiner) already containing 0.5 μl of test compound.
All plates were covered with gas permeable seals and incubated at 37° C., 5% CO2 for 48 hours. After 48 hours, 5 μl WST-1 reagent (Roche, 11 644 807 001) was added to each well and the plate returned to the incubator for 3 hours. After this incubation period absorbance was read at 450 nm on an EnVision (Perkin Elmer) plate reader. The half maximal cytotoxic concentration (CC50) values were calculated for each compound by constructing log concentration-response curves.
All of the exemplified compounds have been screened in a cell proliferation assay (WST-1). A majority have […] in at least 2 independent experiments, the exceptions being the compounds of examples 1, 10, 12, 23, 25, 37, 47, 48, 49, 52, 56, 57, 58, 60, 67, 68, 69, 70, 71, 72, 73, 74, 79, 81 and 84 which have CC50 values>2 μM in 1 experiment, and example 20 where the CC50 is reported as >10 nM (in this instance the top concentration tested in the assay was 10 nM).

[5] = geometric mean, 95% confidence intervals in parentheses, 48 hours, medium with 10% FCS

Row | SMILES | fraction unbound at 4 h, 2 µM [1] | IC50 [2, 5] | IC50 [3, 5] | IC50 ([2]; 48 h) | CC50 at 48 h [4] | IC50 ([3]; 48 h)
1 | COC(=O)N[C@H](C(=O)N1CCC[C@H]1c1ncc(-c2ccc(-c3ccc4cc(-c5cnc([C@@H]6CCCN6C(=O)[C@@H](NC(=O)OC)C(C)C)[nH]5)ccc4c3)cc2)[nH]1)C(C)C [Example 2, Methyl {(2S)-1-[(2S)-2-{5-[6-(4-{2-[(2S)-1-{(2S)-2-[(methoxycarbonyl)amino]-3-methyl-butanoyl}pyrrolidin-2-yl]-1H-imidazol-4-yl}phenyl)naphthalen-2-yl]-1H-imidazol-2-yl}pyrrolidin-1-yl]-3-methyl-1-oxobutan-2-yl}carbamate] | 0.001 | 2.37 pM | 22.3 pM | – | – | –
2 | COC(=O)N[C@H](C(=O)N1CCC[C@H]1c1nc(-c2ccc3nc(-c4ccc(-c5cnc([C@@H]6CCCN6C(=O)[C@@H](NC(=O)OC)C(C)C)[nH]5)cc4)ccc3c2)c[nH]1)C(C)C [Example 3, [(S)-1-((S)-2-{4-[2-(4-{2-[(S)-1-((S)-2-Methoxycarbonylamino-3-methyl-butyryl)-pyrrolidin-2-yl]-3H-imidazol-4-yl}-phenyl)-quinolin-6-yl]-1H-imidazol-2-yl}-pyrrolidine-1-carbonyl)-2-methyl-propyl]-carbamic acid methyl ester] | < 0.0015 | 9.31 pM | 74.6 pM | – | – | –
3 | COC(=O)N[C@@H](CCS(C)(=O)=O)C(=O)N1CCC[C@H]1c1ncc(-c2ccc3nc(-c4ccc(-c5c[nH]c([C@@H]6CCCN6C(=O)[C@@H](NC(=O)OC)C(C)C)n5)cc4)cnc3c2)[nH]1 [Example 67, methyl [(2S)-1-[(2S)-2-{5-[2-(4-{2-[(2S)-1-{(2S)-2-[(methoxycarbonyl)amino]-3-methylbutanoyl}pyrrolidin-2-yl]-1H-imidazol-4-yl}phenyl)quinoxalin-6-yl]-1H-imidazol-2-yl}pyrrolidin-1-yl]-4-(methylsulfonyl)-1-oxobutan-2-yl]carbamate trifluoroacetic acid salt] | – | – | – | 74.8 pM | > 2000 nM | 27.5 pM
4 | COC[C@H](NC(=O)OC)C(=O)N1CCC[C@H]1c1ncc(-c2ccc3nc(-c4ccc(-c5c[nH]c([C@@H]6CCCN6C(=O)[C@@H](NC(=O)OC)C(C)C)n5)cc4)cnc3c2)[nH]1 [Example 69, Methyl {(2S)-1-[(2S)-2-{4-[4-(6-{2-[(2S)-1-{(2S)-3-methoxy-2-[(methoxycarbonyl)amino]propanoyl}pyrrolidin-2-yl]-1H-imidazol-5-yl}quinoxalin-2-yl)phenyl]-1H-imidazol-2-yl}pyrrolidin-1-yl]-3-methyl-1-oxobutan-2-yl}carbamate trifluoroacetic acid salt] | – | – | – | 19.6 pM | > 2000 nM | 22.3 pM
5 | COC(=O)N[C@H](C(=O)N1CCC[C@H]1c1nc(-c2ccc(-c3cnc4cc(-c5cnc([C@@H]6CCCN6C(=O)[C@@H](NC(=O)OC)C(C)(C)C)[nH]5)ccc4n3)cc2)c[nH]1)C(C)C [Example 70, Methyl {(2S)-1-[(2S)-2-{4-[4-(6-{2-[(2S)-1-{(2S)-2-[(methoxycarbonyl)amino]-3,3-dimethylbutanoyl}pyrrolidin-2-yl]-1H-imidazol-5-yl}quinoxalin-2-yl)phenyl]-1H-imidazol-2-yl}pyrrolidin-1-yl]-3-methyl-1-oxobutan-2-yl}carbamate trifluoroacetic acid salt] | – | – | – | 5.17 pM | > 2000 nM | 9.13 pM
6 | COC(=O)NC(C(=O)N1CCC[C@H]1c1ncc(-c2ccc3nc(-c4ccc(-c5c[nH]c([C@@H]6CCCN6C(=O)[C@@H](NC(=O)OC)C(C)C)n5)cc4)cnc3c2)[nH]1)C1CCOCC1 (stereo partly drawn) [Example 71, Methyl {(2S)-1-[(2S)-2-{4-[4-(6-{2-[(2S)-1-{[(methoxycarbonyl)amino](tetrahydro-2H-pyran-4-yl)acetyl}pyrrolidin-2-yl]-1H-imidazol-5-yl}quinoxalin-2-yl)phenyl]-1H-imidazol-2-yl}pyrrolidin-1-yl]-3-methyl-1-oxobutan-2-yl}carbamate] | – | 23.7 pM | 30.7 pM | – | > 2000 nM | –
7 | COC(=O)N[C@H](C(=O)N1CCC[C@H]1c1nc(-c2ccc(-c3cnc4cc(-c5cnc([C@@H]6CCCN6C(=O)[C@@H](CCc6ccccc6)NC(=O)OC)[nH]5)ccc4n3)cc2)c[nH]1)C(C)C [Example 72, Methyl {(2R)-1-[(2S)-2-{5-[2-(4-{2-[(2S)-1-{(2S)-2-[(methoxycarbonyl)amino]-3-methylbutanoyl}pyrrolidin-2-yl]-1H-imidazol-4-yl}phenyl)quinoxalin-6-yl]-1H-imidazol-2-yl}pyrrolidin-1-yl]-1-oxo-4-phenylbutan-2-yl}carbamate trifluoroacetic acid salt] | – | – | – | 7.81 pM | > 2000 nM | 53.6 pM
8 | COC(=O)N[C@H](C(=O)N1CCC[C@H]1c1nc(-c2ccc(-c3cnc4cc(-c5cnc([C@@H]6CCCN6C(=O)[C@H](NC(=O)OC)C(C)(C)C)[nH]5)ccc4n3)cc2)c[nH]1)C(C)C [Example 73, Methyl {(2S)-1-[(2S)-2-{4-[4-(6-{2-[(2S)-1-{(2R)-2-[(methoxycarbonyl)amino]-3,3-dimethylbutanoyl}pyrrolidin-2-yl]-1H-imidazol-5-yl}quinoxalin-2-yl)phenyl]-1H-imidazol-2-yl}pyrrolidin-1-yl]-3-methyl-1-oxobutan-2-yl}carbamate trifluoroacetic acid salt] | – | – | – | 8.11 pM | > 2000 nM | 13.3 pM
9 | COC(=O)N[C@H](C(=O)N1CCC[C@H]1c1nc(-c2ccc(-c3cnc4cc(-c5cnc([C@@H]6CCCN6C(=O)[C@@H](NC(=O)OC)[C@@H](C)OC(C)(C)C)[nH]5)ccc4n3)cc2)c[nH]1)C(C)C [Example 74, Methyl {(2S)-1-[(2S)-2-{4-[4-(6-{2-[(2S)-1-{(2S,3R)-3-tert-butoxy-2-[(methoxycarbonyl)amino]butanoyl}pyrrolidin-2-yl]-1H-imidazol-5-yl}quinoxalin-2-yl)phenyl]-1H-imidazol-2-yl}pyrrolidin-1-yl]-3-methyl-1-oxobutan-2-yl)carbamate] | – | 14.2 pM | 43.7 pM | – | > 2000 nM | –
10 | COC(=O)N[C@@H](CCc1ccccc1)C(=O)N1CCC[C@H]1c1ncc(-c2ccc3nc(-c4ccc(-c5c[nH]c([C@@H]6CCCN6C(=O)[C@@H](NC(=O)OC)C(C)C)n5)cc4)cnc3c2)[nH]1 [Example 79, Methyl {(2S)-1-[(2S)-2-{5-[2-(4-{2-[(2S)-1-{(2S)-2-[(methoxycarbonyl)amino]-3-methylbutanoyl}pyrrolidin-2-yl]-1H-imidazol-4-yl}phenyl)quinoxalin-6-yl]-1H-imidazol-2-yl]pyrrolidin-1-yl]-1-oxo-4-phenylbutan-2-yl}carbamate trifluoroacetic acid salt] | – | – | – | 11.7 pM | > 2000 nM | 47.6 pM
11 | COC(=O)N[C@H](C(=O)N1CCC[C@H]1c1nc(-c2ccc(-c3cnc4cc(-c5cnc([C@@H]6CCCN6C(=O)[C@H](NC(=O)OC)c6ccccc6)[nH]5)ccc4n3)cc2)c[nH]1)C(C)C [Example 84, Methyl {(2S)-1-[(2S)-2-{4-[4-(6-{2-[(2S)-1-{(2R)-2-[(methoxycarbonyl)amino]-2-phenylacetyl}pyrrolidin-2-yl]-1H-imidazol-5-yl}quinoxalin-2-yl)phenyl]-1H-imidazol-2-yl}pyrrolidin-1-yl]-3-methyl-1-oxobutan-2-yl}carbamate trifluoroacetic acid salt] | – | – | – | 10.9 pM | > 2000 nM | 19 pM

From patent US20110112100A1, “Hepatitis C Virus Inhibitors” (priority 2009, published 2011)
